Data: patent publication US9708336B2, “Metallo-beta-lactamase inhibitors” (priority 2014, dated 2017)
Where two headings read alike, the source gives them in different places.

Experiments:
NDM-1 = NDM-1 (Klebsiella pneumoniae, UniProt C7C422); assay: biochemical; assay type: biochemical; settings: read-out: NDM-1 IC50
IMP-1 = IMP-1 (Serratia marcescens, UniProt P52699); assay: biochemical; assay type: biochemical; settings: read-out: IMP-1 IC50
VIM-1 = VIM-1 (Pseudomonas aeruginosa (strain ATCC 15692 / DSM 22644 / CIP 104116 / JCM 14847 / LMG 12228 / 1C / PRS 101 / PAO1), UniProt A0A0F7KYQ8); assay: Enzyme activity: determination of IC50, fluorescence assay with CCF2-FA substrate (VIM-1); assay type: biochemical
Method: Enzyme Activity: Determination of IC50
The Class B enzyme activities were measured in the presence of the test inhibitor in a fluorescence assay against a commercially available substrate consisting of a cephalosporin core linking 7-hydroxycoumarin to fluorescein (CCF2-FA). The enzyme (NDM-1, IMP-1 or VIM-1) and the substrate were diluted in 100 mM KH2PO4 buffer (pH 7) containing 0.005% Tween-20 and 10 μM ZnSO4. […] The test inhibitor was dissolved in dimethylsulfoxide and diluted 1:50 in the assay, resulting in a final concentration range of 20 uM to 0.00063 uM. In a 384-well microplate, the test inhibitor was incubated with the metallo-β-lactamase enzyme and the substrate for 2 hours at 25° C. Fluorescence at 460 nm following excitation at 405 nm was measured. The IC50 value was determined from semi-logarithmic plots of enzyme inhibition versus inhibitor concentration, with a curve generated using a 4-parameter fit.

[1] = tested on: Escherichia coli expressing NDM-1 (CLB30016); assay: Antibiotic potentiation activity: synergistic concentration (MITC95) with imipenem, OD600 growth; assay type: cell-based; settings: for Escherichia coli expressing NDM-1 (CLB 30016) MITC95: concentration giving 95% inhibition of bacterial growth
In short: (§1)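 CLB30005 was precultured on Mueller Hinton agar with 8 ug/ml imipenem, the other strains on trypticase soy agar with 5% sheep blood, overnight at 35 °C. Saline suspensions diluted 1:100 in 1.1× CAMHB received compound and 4 μg/ml imipenem, then 22–24 h at 35 °C before absorbance reading.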

[2] = tested on: Klebsiella pneumoniae expressing VIM-1 (IHMA599644); assay: as above; assay type: cell-based; settings: for Klebsiella pneumoniae expressing VIM-1 (IHMA 599644) MITC95: concentration giving 95% inhibition of bacterial growth
In short: as §1

[3] = tested on: Serratia marcescens expressing IMP-1 (CL5741); assay: as above; assay type: cell-based; settings: for Serratia marcescens expressing IMP-1 (CL5741) MITC95: concentration giving 95% inhibition of bacterial growth
In short: as §1

[4] = NDM-1 enzyme, CCF2-FA fluorescence assay
[5] = IMP-1 enzyme, CCF2-FA fluorescence assay
[6] = VIM-1 enzyme, CCF2-FA fluorescence assay, read-out: VIM-1 IC50
[7] = Escherichia coli expressing NDM-1 (CLB30016), 95% growth inhibition
[8] = Klebsiella pneumoniae expressing VIM-1 (IHMA599644), 95% growth inhibition
[9] = Serratia marcescens expressing IMP-1 (CL5741), 95% growth inhibition
[10] = fluorescence assay with CCF2-FA substrate
[11] = fluorescence assay with CCF2-FA substrate, read-out: VIM-1 IC50
[12] = NDM-1 enzyme, CCF2-FA substrate
[13] = IMP-1 enzyme, CCF2-FA substrate
[14] = (CLB30016, NDM-1), 95% growth inhibition
[15] = Klebsiella pneumoniae IHMA599644 (VIM-1), 95% growth inhibition
[16] = Serratia marcescens CL5741 (IMP-1), 95% growth inhibition
[17] = CLB30016 (NDM-1), 95% inhibition of bacterial growth
[18] = IHMA599644 (VIM-1), 95% inhibition of bacterial growth
[19] = CL5741 (IMP-1), 95% inhibition of bacterial growth

NDM-1, sequence (C7C422 whole entry, looked up, species assumed): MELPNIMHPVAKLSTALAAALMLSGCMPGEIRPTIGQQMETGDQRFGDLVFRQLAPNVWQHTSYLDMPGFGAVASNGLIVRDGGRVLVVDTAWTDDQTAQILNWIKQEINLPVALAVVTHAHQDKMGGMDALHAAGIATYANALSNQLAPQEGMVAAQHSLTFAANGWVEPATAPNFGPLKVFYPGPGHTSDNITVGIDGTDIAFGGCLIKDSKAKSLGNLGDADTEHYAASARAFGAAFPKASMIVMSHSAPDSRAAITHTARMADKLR
IMP-1, sequence (P52699 whole entry, looked up): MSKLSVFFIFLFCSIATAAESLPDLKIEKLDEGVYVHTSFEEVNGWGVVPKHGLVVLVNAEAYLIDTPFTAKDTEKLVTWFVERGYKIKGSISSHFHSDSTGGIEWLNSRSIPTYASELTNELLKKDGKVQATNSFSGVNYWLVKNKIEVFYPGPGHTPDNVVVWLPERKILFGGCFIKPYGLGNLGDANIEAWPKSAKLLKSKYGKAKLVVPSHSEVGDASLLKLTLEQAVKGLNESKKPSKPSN

SMILES | IC50 (NDM-1; [4]) [nM] | IC50 (IMP-1; [5]) [nM] | IC50 (VIM-1; [6]) [nM] | Escherichia coli MITC95 [1, 7] [µM] | Klebsiella pneumoniae MITC95 [2, 8] [µM] | Serratia marcescens MITC95 [3, 9] [µM] | IC50 (NDM-1; [10]) [nM] | IC50 (IMP-1; [10]) [nM] | IC50 (VIM-1; [11]) [nM] | further results
NS(=O)(=O)c1nccc(-n2cnc3ccccc32)c1-c1nn[nH]n1 [Example 246, 4-(1H-benzo[d]imidazol-1-yl)-3-(2H-tetrazol-5-yl)pyridine-2-sulfonamide] | 30.2 | 2800 | 78.3 | 0.5859 | 12.5 | 150 | – | – | – | –
Cn1cc2cc(-c3cccc(S(N)(=O)=O)c3-c3nnn[nH]3)ccc2n1 [Example 127, 3-(2-methyl-2H-indazol-5-yl)-2-(1H-tetrazol-5-yl)benzenesulfonamide] | – | – | – | – | – | – | 1.11 | 157 | 84.2 | Escherichia coli expressing NDM-1 (CLB 30016) MITC95 [1]: 1.172 µM; Klebsiella pneumoniae expressing VIM-1 (IHMA 599644) MITC95 [2]: 37.5 µM; Serratia marcescens expressing IMP-1 (CL5741) MITC95 [3]: 4.688 µM
Cc1ccc(C(F)(F)F)c(S(N)(=O)=O)c1-c1nnn[nH]1 [Example 487, 3-methyl-2-(1H-tetrazol-5-yl)-6-(trifluoromethyl)benzenesulfonamide] | 102 | 56.4 | 70.4 | 1.563 | 25 | 1.563 | – | – | – | –
N#Cc1cccc(Cc2cccc(S(N)(=O)=O)c2-c2nnn[nH]2)c1 [Example 152, 3-(3-cyanobenzyl)-2-(1H-tetrazol-5-yl)benzenesulfonamide] | – | – | – | – | – | – | 14.2 | 252 | 91.4 | Escherichia coli expressing NDM-1 (CLB 30016) MITC95 [1]: 4.688 µM; Klebsiella pneumoniae expressing VIM-1 (IHMA 599644) MITC95 [2]: 200 µM; Serratia marcescens expressing IMP-1 (CL5741) MITC95 [3]: 12.5 µM
NS(=O)(=O)c1cccc(-c2ccc(C3=CCNC3)cc2)c1-c1nn[nH]n1 [Example 285, 4′-(2,5-dihydro-1H-pyrrol-3-yl)-2-(2H-tetrazol-5-yl)-[1,1′-biphenyl]-3-sulfonamide] | 2.83 | 25.1 | 18 | 0.3906 | 3.125 | 0.7813 | – | – | – | –
Nc1nc2ccc(-c3ccc(C(F)(F)F)c(S(N)(=O)=O)c3-c3nnn[nH]3)cc2[nH]1 [Example 552, 3-(2-amino-3H-benzimidazol-5-yl)-2-(1H-tetrazol-5-yl)-6-(trifluoromethyl)benzenesulfonamide] | – | – | – | – | – | – | – | – | – | IC50 (NDM-1; [12]): 1.32 nM; IC50 (IMP-1; [13]): 7.2 nM; IC50 (VIM-1; VIM-1 IC50, VIM-1 enzyme, CCF2-FA substrate): 0.262 nM; Escherichia coli MITC95 [1, 14]: 0.3906 µM; Klebsiella pneumoniae MITC95 [2, 15]: 1.563 µM; Serratia marcescens MITC95 [3, 16]: 1.563 µM
Nc1ncc(CCc2ccc(C(F)(F)F)c(S(N)(=O)=O)c2-c2nn[nH]n2)cc1CO [Example 508, 3-(2-(6-Amino-5-(hydroxymethyl)pyridin-3-yl)ethyl)-2-(2H-tetrazol-5-yl)-6-(trifluoromethyl)benzenesulfonamide] | – | – | – | – | – | – | – | – | – | IC50 (NDM-1; [12]): 4.55 nM; IC50 (IMP-1; [13]): 2.37 nM; IC50 (VIM-1; VIM-1 enzyme, CCF2-FA substrate, read-out: VIM-1 IC50): 1.66 nM; Escherichia coli MITC95 [1, 14]: 0.8359 µM; Klebsiella pneumoniae MITC95 [2, 15]: 3.125 µM; Serratia marcescens MITC95 [3, 16]: 0.0625 µM
NC[C@H](N)C(=O)NC1CCC(c2ccc(C(F)(F)F)c(S(N)(=O)=O)c2-c2nnn[nH]2)CC1 (stereo partly drawn) [Example 837, (S)-2,3-diamino-N-((1r,4S)-4-(3-sulfamoyl-2-(1H-tetrazol-5-yl)-4-(trifluoromethyl)phenyl)cyclohexyl)propanamide] | – | – | – | – | – | – | 8.68 | 21.2 | 2.9 | Escherichia coli MITC95 [1, 17]: 1.563 µM; Klebsiella pneumoniae MITC95 [2, 18]: 6.25 µM; Serratia marcescens MITC95 [3, 19]: 0.5859 µM
NS(=O)(=O)c1c(C(F)(F)F)ccc(-c2cnc3ccccn23)c1-c1nnn[nH]1 [Example 748, 3-imidazo[1,2-a]pyridin-3-yl-2-(1H-tetrazol-5-yl)-6-(trifluoromethyl)benzenesulfon-amide] | – | – | – | – | – | – | 0.833 | 1.25 | – | IC50 (VIM-1; VIM-1 IC50, fluorescence assay with CCF2-FA substrate): 0.248 nM; Escherichia coli MITC95 [1, 17]: 0.7813 µM; Klebsiella pneumoniae MITC95 [2, 18]: 6.25 µM; Serratia marcescens MITC95 [3, 19]: 6.25 µM
